Values after ≈ are worked out from the molar mass of the structure shown. Values belong to the compound of their own block, whether it stands above or below them.
How the values were obtained:
[1] = physchem
[2] = (§1) Half life of ester hydrolysis in 50% human plasma ( pH of 7.4) at 37 degree Centigrade; conditions: 50% human plasma, pH 7.4
[3] = Second order rate constant for hydroxide ion catalyzed by hydrolysis at 37 degree Centigrade
[4] = physchem; remark: listed apart in the source
[5] = organism: Homo sapiens; assay: as §1; conditions: pH 7.4
[6] = organism: Homo sapiens; conditions: Plasma, pH 7.4
Description: Ability to undergo in vitro ester hydrolysis in 80% human plasma ( pH of 7.4) at 37 degree Celsius expressed as half life of N,N-diethylglycolamide ester hydrolysis

[7] = organism: Homo sapiens; conditions: Plasma, pH 7.4; remark: listed apart in the source
Description: Ability to undergo in vitro ester hydrolysis in 80% human plasma ( pH of 7.4) at 37 degree Celsius expressed as half life of methyl ester hydrolysis

[8] = Half life of ester hydrolysis in 50% human plasma ( pH of 7.4) at 37 degree Centigrade.; format: ADME, organism-based; conditions: pH 7.4

Compound: CN(C)C(=O)COC(=O)c1ccccc1 [BENZOIC ACID DIMETHYLCARBAMOYLMETHYL ESTER]
solubility [1]: 8.8 mg/mL (≈ 42.5 mM) | half-life [2]: 0.15 min | kOH [3]: 0.325 M⁻¹ s⁻¹

Compound: C=CCN(CC=C)C(=O)COC(=O)c1ccccc1 [BENZOIC ACID DIALLYLCARBAMOYLMETHYL ESTER]
solubility [1]: 0.71 mg/mL (≈ 2.74 mM) | logD ([4]; octanol/water): 2.34 | T1/2 [5]: 0.08 min | kOH [3]: 0.307 M⁻¹ s⁻¹

Compound: O=C(O)c1ccccc1O [SALICYLIC ACID]
T1/2 [6]: 0.08 min | T1/2 [7]: 17.6 h

Compound: O=C(OCC(=O)N(CCO)CCO)c1ccccc1
solubility [1]: 720 mg/mL (≈ 2690 mM) | half-life [2]: 0.42 min | kOH [3]: 0.23 M⁻¹ s⁻¹

Compound: CCCCN(CCCC)C(=O)COC(=O)c1ccccc1 [BENZOIC ACID DIBUTYLCARBAMOYLMETHYL ESTER]
solubility [1]: 0.08 mg/mL (≈ 0.275 mM) | half-life [2]: 3.1 min | kOH [3]: 0.188 M⁻¹ s⁻¹

Compound: CCN(CC)C(=O)COC(=O)c1ccccc1 [BENZOIC ACID DIETHYLCARBAMOYLMETHYL ESTER]
solubility [1]: 2 mg/mL (≈ 8.5 mM) | T1/2 [5]: 0.04 min | kOH [3]: 0.273 M⁻¹ s⁻¹

Compound: CN(CCO)C(=O)COC(=O)c1ccccc1
half-life [2]: 0.2 min | kOH [3]: 0.268 M⁻¹ s⁻¹

Compound: CCOC(=O)CN(C)C(=O)COC(=O)c1ccccc1
half-life [2]: 0.22 min

Next, values leading:

solubility [1]: > 200 mg/mL | half-life [2]: 0.12 min | kOH [3]: 0.297 M⁻¹ s⁻¹
Compound: CN(C)CCN(C)C(=O)COC(=O)c1ccccc1.Cl

solubility [1]: 0.32 mg/mL (≈ 1.36 mM) | logD ([4]; 0.01 M HCl): 2.26 | half-life [2]: 4.2 min | kOH [3]: 0.855 M⁻¹ s⁻¹
Compound: CC(C)(C)NC(=O)COC(=O)c1ccccc1

half-life [2]: 12.7 min | kOH [3]: 0.357 M⁻¹ s⁻¹
Compound: CN1CCN(C(=O)COC(=O)c2ccccc2)CC1

solubility [1]: 3.7 mg/mL (≈ 19.2 mM) | logD ([4]; 0.01 M HCl): 0.99 | half-life [2]: 9.3 min | kOH [3]: 1.42 M⁻¹ s⁻¹
Compound: CNC(=O)COC(=O)c1ccccc1 [BENZOIC ACID METHYLCARBAMOYLMETHYL ESTER]

solubility [1]: 1.2 mg/mL (≈ 5.79 mM) | logD ([4]; 0.01 M HCl): 1.28 | half-life [2]: 11.5 min | kOH [3]: 1.1 M⁻¹ s⁻¹
Compound: CCNC(=O)COC(=O)c1ccccc1 [BENZOIC ACID ETHYLCARBAMOYLMETHYL ESTER]

solubility [1]: 4.1 mg/mL (≈ 22.9 mM) | logD ([4]; 0.01 M HCl): 0.09 | half-life [8]: 31 min | kOH [3]: 1.32 M⁻¹ s⁻¹
Compound: NC(=O)COC(=O)c1ccccc1 [BENZOIC ACID CARBAMOYLMETHYL ESTER]

solubility [1]: 0.64 mg/mL (≈ 2.89 mM) | logD ([4]; 0.01 M HCl): 1.88 | half-life [2]: 11.2 min | kOH [3]: 0.868 M⁻¹ s⁻¹
Compound: CCCNC(=O)COC(=O)c1ccccc1 [BENZOIC ACID PROPYLCARBAMOYLMETHYL ESTER]

half-life [2]: 0.16 min | kOH [3]: 0.273 M⁻¹ s⁻¹
Compound: CCN(CCO)C(=O)COC(=O)c1ccccc1

T1/2 [6]: 25 min | T1/2 [7]: 150 h
Compound: COc1ccc2c(c1)c(CC(=O)O)c(C)n2C(=O)c1ccc(Cl)cc1 [INDOMETHACIN]

half-life [2]: 0.14 min | kOH [3]: 0.237 M⁻¹ s⁻¹
Compound: CCCN(CCC)C(=O)COC(=O)c1ccccc1 [BENZOIC ACID DIPROPYLCARBAMOYLMETHYL ESTER]

logD ([4]; 0.01 M HCl): 0.67 | half-life [2]: 104 min | kOH [3]: 0.25 M⁻¹ s⁻¹
Compound: CN(CC(=O)O)C(=O)COC(=O)c1ccccc1

Source: ChEMBL document CHEMBL1123686, “Esters of N,N-disubstituted 2-hydroxyacetamides as a novel highly biolabile prodrug type for carboxylic acid agents” (J Med Chem, 1987)
